Results as given in US10022374B2, “Certain protein kinase inhibitors” (Shanghai Fochon Pharmaceutical Co., Ltd., priority 2013, dated 2018).
Where two headings read alike, the source gives them in different places.

Experiments:
[1] = test system: HT-29 cells; assay: Inhibition of cell proliferation (MTS), HT-29 cells; type: cell-based; conditions: Homo sapiens, HT-29, 72 h
Procedure: (§1) MTS testing kit was purchased from Promega. The DMEM, RPMI-1640 and Fetal bovine serum were purchased from Gibco. Dimethyl sulfoxide (DMSO) was purchased from Sigma.
(§2) To investigate whether a compound is able to inhibit the activity of MEK in cells, a mechanism-based assay using A-375 and HT-29 cell was developed. In this assay, inhibition of MEK was detected by the inhibition of A-375 and HT-29 cells proliferation. A-375 and HT-29 cells were cultured in culture flasks to 40-80% confluence respectively in DMEM and RPMI-1640 plus 10% fetal bovine serum. Cells were collected and plated onto 96-well plates at desired cell density (A-375: 3000 cells/well; HT-29: 5000 cells/well). Plates were incubated overnight at 37° C., with 5% CO2 to adhere. Compounds were added to the plates. The final compound concentrations were […], 12.35, 4.12, 1.37, 0.46 and 0.15 nM, respectively. Place plates at 37° C., with 5% CO2 for 72 h. 10 μl MTS were added to each well and incubate the plates for exactly 2 hours. Absorbance was measured at 490 nm. […] was calculated using GraphPad Prism 5.0.

[2] = test system: A-375 cells; assay: Inhibition of cell proliferation (MTS), A-375 cells; type: cell-based; conditions: Homo sapiens, A-375, 72 h
Procedure: as §1, §2

[3] = HT-29 cells, 5000 cells/well, 72 h, MTS, absorbance 490 nm, read-out: HT29 IC50
[4] = A-375 cells, 3000 cells/well, 72 h, MTS, absorbance 490 nm, read-out: A375 IC50

Row | Compound | IC50 ([1]; read-out: HT29 IC50 (nM)) [nM] | IC50 ([2]; read-out: A375 IC50 (nM)) [nM] | IC50 [1, 3] [nM] | IC50 [2, 4] [nM]
1 | CC(=O)Nc1cccc(-c2nn(C3CC3)c(=O)c3c(Nc4ccc(I)cc4F)c(F)c(=O)n(C)c23)c1 [Example 1, N-(3-(6-cyclopropyl-3-fluoro-4-(2-fluoro-4-iodophenylamino)-1-methyl-2,5-dioxo-1,2,5,6-tetrahydropyrido[2,3-d]pyridazin-8-yl)phenyl)acetamide] | 2.4 | 1.2 |  | 
2 | CCC(=O)Nc1cccc(-c2nn(C3CC3)c(=O)c3c(Nc4ccc(I)cc4F)c(F)c(=O)n(C)c23)c1 [Example 2, N-(3-(6-cyclopropyl-3-fluoro-4-(2-fluoro-4-iodophenylamino)-1-methyl-2,5-dioxo-1,2,5,6-tetrahydropyrido[2,3-d]pyridazin-8-yl)phenyl)propionamide] |  |  | 13.7 | 10.6
3 | CC(C)C(=O)Nc1cccc(-c2nn(C3CC3)c(=O)c3c(Nc4ccc(I)cc4F)c(F)c(=O)n(C)c23)c1 [Example 3, N-(3-(6-cyclopropyl-3-fluoro-4-(2-fluoro-4-iodophenylamino)-1-methyl-2,5-dioxo-1,2,5,6-tetrahydropyrido[2,3-d]pyridazin-8-yl)phenyl)isobutyramide] |  |  | 41.4 | 15.3
4 | Cn1c(=O)c(F)c(Nc2ccc(I)cc2F)c2c(=O)n(C3CC3)nc(-c3cccc(NC(=O)C4CC4)c3)c21 [Example 4, N-(3-(6-cyclopropyl-3-fluoro-4-(2-fluoro-4-iodophenylamino)-1-methyl-2,5-dioxo-1,2,5,6-tetrahydropyrido[2,3-d]pyridazin-8-yl)phenyl)cyclopropanecarboxamide] |  |  | 41.9 | 26.6
5 | Cn1c(=O)c(F)c(Nc2ccc(I)cc2F)c2c(=O)n(C3CC3)nc(-c3cccc(NS(C)(=O)=O)c3)c21 [Example 5, N-(3-(6-cyclopropyl-3-fluoro-4-(2-fluoro-4-iodophenylamino)-1-methyl-2,5-dioxo-1,2,5,6-tetrahydropyrido[2,3-d]pyridazin-8-yl)phenyl)methanesulfonamide] |  |  | 5.1 | 4
6 | CCS(=O)(=O)Nc1cccc(-c2nn(C3CC3)c(=O)c3c(Nc4ccc(I)cc4F)c(F)c(=O)n(C)c23)c1 [Example 6, N-(3-(6-cyclopropyl-3-fluoro-4-(2-fluoro-4-iodophenylamino)-1-methyl-2,5-dioxo-1,2,5,6-tetrahydropyrido[2,3-d]pyridazin-8-yl)phenyl)ethanesulfonamide] |  |  | 6.4 | 4.8
7 | CC(C)S(=O)(=O)Nc1cccc(-c2nn(C3CC3)c(=O)c3c(Nc4ccc(I)cc4F)c(F)c(=O)n(C)c23)c1 [Example 7, N-(3-(6-cyclopropyl-3-fluoro-4-(2-fluoro-4-iodophenylamino)-1-methyl-2,5-dioxo-1,2,5,6-tetrahydropyrido[2,3-d]pyridazin-8-yl)phenyl)propane-2-sulfonamide] |  |  | 4.1 | 3.5
8 | C=CCn1nc(-c2cccc(NS(=O)(=O)C3CC3)c2)c2c(c(Nc3ccc(I)cc3F)c(F)c(=O)n2C)c1=O [Example 8, N-(3-(6-allyl-3-fluoro-4-(2-fluoro-4-iodophenylamino)-1-methyl-2,5-dioxo-1,2,5,6-tetrahydropyrido[2,3-d]pyridazin-8-yl)phenyl)cyclopropanesulfonamide] |  |  | 5.4 | 5.4
9 | CC(=O)Nc1cccc(-c2nn(C(C)C)c(=O)c3c(Nc4ccc(I)cc4F)c(F)c(=O)n(C)c23)c1 [Example 9, N-(3-(3-fluoro-4-(2-fluoro-4-iodophenylamino)-6-isopropyl-1-methyl-2,5-dioxo-1,2,5,6-tetrahydropyrido[2,3-d]pyridazin-8-yl)phenyl)acetamide] |  |  | 47.3 | 44
10 | CCC(=O)Nc1cccc(-c2nn(C(C)C)c(=O)c3c(Nc4ccc(I)cc4F)c(F)c(=O)n(C)c23)c1 [Example 10, N-(3-(3-fluoro-4-(2-fluoro-4-iodophenylamino)-6-isopropyl-1-methyl-2,5-dioxo-1,2,5,6-tetrahydropyrido[2,3-d]pyridazin-8-yl)phenyl)propionamide] |  |  | 59.6 | 61.2
11 | CC(C)C(=O)Nc1cccc(-c2nn(C(C)C)c(=O)c3c(Nc4ccc(I)cc4F)c(F)c(=O)n(C)c23)c1 [Example 11, N-(3-(3-fluoro-4-(2-fluoro-4-iodophenylamino)-6-isopropyl-1-methyl-2,5-dioxo-1,2,5,6-tetrahydropyrido[2,3-d]pyridazin-8-yl)phenyl)isobutyramide] |  |  | 180 | 198
12 | CC(C)n1nc(-c2cccc(NC(=O)C3CC3)c2)c2c(c(Nc3ccc(I)cc3F)c(F)c(=O)n2C)c1=O [Example 12, N-(3-(3-fluoro-4-(2-fluoro-4-iodophenylamino)-6-isopropyl-1-methyl-2,5-dioxo-1,2,5,6-tetrahydropyrido[2,3-d]pyridazin-8-yl)phenyl)cyclopropanecarboxamide] |  |  | 192 | 199
13 | CC(C)n1nc(-c2cccc(NS(C)(=O)=O)c2)c2c(c(Nc3ccc(I)cc3F)c(F)c(=O)n2C)c1=O [Example 13, N-(3-(3-fluoro-4-(2-fluoro-4-iodophenylamino)-6-isopropyl-1-methyl-2,5-dioxo-1,2,5,6-tetrahydropyrido[2,3-d]pyridazin-8-yl)phenyl)methanesulfonamide] |  |  | 87.4 | 26.2
14 | CCS(=O)(=O)Nc1cccc(-c2nn(C(C)C)c(=O)c3c(Nc4ccc(I)cc4F)c(F)c(=O)n(C)c23)c1 [Example 14, N-(3-(3-fluoro-4-(2-fluoro-4-iodophenylamino)-6-isopropyl-1-methyl-2,5-dioxo-1,2,5,6-tetrahydropyrido[2,3-d]pyridazin-8-yl)phenyl)ethanesulfonamide] |  |  | 6.4 | 19.6
15 | CC(C)n1nc(-c2cccc(NS(=O)(=O)C(C)C)c2)c2c(c(Nc3ccc(I)cc3F)c(F)c(=O)n2C)c1=O [Example 15, N-(3-(3-fluoro-4-(2-fluoro-4-iodophenylamino)-6-isopropyl-1-methyl-2,5-dioxo-1,2,5,6-tetrahydropyrido[2,3-d]pyridazin-8-yl)phenyl)propane-2-sulfonamide] |  |  | 152 | 34.9
16 | CC(C)n1nc(-c2cccc(NS(=O)(=O)C3CC3)c2)c2c(c(Nc3ccc(I)cc3F)c(F)c(=O)n2C)c1=O [Example 16, N-(3-(3-fluoro-4-(2-fluoro-4-iodophenylamino)-6-isopropyl-1-methyl-2,5-dioxo-1,2,5,6-tetrahydropyrido[2,3-d]pyridazin-8-yl)phenyl)cyclopropanesulfonamide] |  |  | 31.5 | 19.4
17 | C=CCn1nc(-c2cccc(NC(C)=O)c2)c2c(c(Nc3ccc(I)cc3F)c(Cl)c(=O)n2C)c1=O [Example 38, N-(3-(6-allyl-3-chloro-4-(2-fluoro-4-iodophenylamino)-1-methyl-2,5-dioxo-1,2,5,6-tetrahydropyrido[2,3-d]pyridazin-8-yl)phenyl)acetamide] |  |  |  | 20.8
18 | CC(=O)Nc1cccc(-c2nn(CC(O)CO)c(=O)c3c(Nc4ccc(I)cc4F)c(Cl)c(=O)n(C)c23)c1 (stereo not shown) [Example 39, N-(3-(3-chloro-6-(2,3-dihydroxypropyl)-4-((2-fluoro-4-iodophenyl)amino)-1-methyl-2,5-dioxo-1,2,5,6-tetrahydropyrido[2,3-d]pyridazin-8-yl)phenyl)acetamide] |  |  |  | 22.8
